Measured values taken from patent US20190282492A1, “COSMETIC COMPOSITIONS FOR SKIN REPARATION” (Natura Cosméticos S.A., priority 2016, published 2019).

Legend:
Type in all cases: cell-based
[1] = tested on: MMP-13; experiment: Quantification of MMP-13 by ELISA; conditions: compared to the untreated control
Description: (§1) In another aspect, this invention also refers to an in vitro method of assessing skin repair, that is suitable for studying a variety of active ingredients, comprised of the following steps: • Step 1—Initial Indication: quantification of the FGF-2 growth factor through the flow cytometry technique; • Step 2—Inflammation: quantification of inflammatory cytokines (IL-1B, IL-6, IL-8, IL-10, IL-12 p70) through the flow cytometry technique; • Step 3—Cell proliferation and migration: • Cell proliferation through the Neutral Red detection method; • Cell migration through the ECIS and Scratch method; • Step 4—Remodeling and Resolution • Quantification of matrix metalloproteinase MMP-13 through the Enzyme-Linked Immunosorbent Assay (ELISA) technique; • Determination of collagenase/gelatinase enzyme activity (MMP-1 and MMP-3) and elastase (MMP-1 2) through the enzyme inhibition assay.
(§2) All the tests were conducted in triplicate, with experiments repeated at least twice, using negative control groups (no stimulation with active ingredients) and positive control groups (stimulated with molecules modulating the marker to be assayed). […]
as §1, with “As a result,” for “In another aspect,”, “project encompassed the following” for “invention also refers to an”, “assays:” for “method of assessing skin repair, that is suitable for studying a variety of active ingredients, comprised of the following steps:”, “FGF2” for “FGF-2”

[2] = Cell proliferation, Neutral Red detection method; conditions: compared to the untreated control after 48 hours of treatment
Description: as §1, §2
as §1, with “As a result,” for “In another aspect,”, “project encompassed the following” for “invention also refers to an”, “assays:” for “method of assessing skin repair, that is suitable for studying a variety of active ingredients, comprised of the following steps:”, “FGF2” for “FGF-2”, “assay. […]” for “assay.”

[3] = tested on: FGF-2; experiment: Quantification of FGF-2 growth factor by flow cytometry; conditions: in comparison to the negative control
Description: as §1, §2

[4] = tested on: IL-8; experiment: Quantification of inflammatory cytokines by flow cytometry (IL-8); conditions: in terms of negative control
Description: as §1, §2

[5] = tested on: IL-10; experiment: Quantification of inflammatory cytokines by flow cytometry (IL-10); conditions: in terms of negative control
Description: as §1, §2

| Molecule | MMP-13 quantification, increase [1] | increase in cell proliferation (in words) [2] | FGF-2 increase [3] | IL-8 increase [4] | IL-10 increase [5] [times] |
| --- | --- | --- | --- | --- | --- |
| NC(=O)NC1NC(=O)NC1=O (stereo not drawn) [allantoin] | threefold increases | did not present significant increases |  |  |  |
| madecassoside | threefold increases | did not present significant increases | up to 115 times | twofold increase | 2.3 |
| papain (protein, UniProt P00784 134-345, looked up, standard (enzyme)) Papain: IPEYVDWRQKGAVTPVKNQGSCGSCWAFSAVVTIEGIIKIRTGNLNEYSEQELLDCDRRSYGCNGGYPWSALQLVAQYGIHYRNTYPYEGVQRYCRSREKGPYAAKTDGVRQVQPYNEGALLYSIANQPVSVVLEAAGKDFQLYRGGIFVGPCGNKVDHAVAAVGYGPNYILIKNSWGTGWGENGYIRIKRGTGNSYGVCGLYTSSFYPVKN | threefold increases | did not present significant increases |  |  |  |
